Measurements from patent US6914045B2, “Glycopeptide antibiotics” (Wyeth Holdings Corporation, priority 2001, dated 2005).
≈ marks a conversion by molar mass, not a printed value.

Assays:
Experiment in all cases: in vitro antibacterial evaluation, MIC by broth dilution
Assay type in all cases: cell-based
Conditions in all cases: broth dilution, 18 hours at 35° C.
Escherichia coli = tested on: Escherichia coli
Summary of the method: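 MIC is the lowest antibiotic concentration (tested 64-0.06 μg/mL) preventing growth of a 5×10^5 CFU/mL inoculum. Determined by broth dilution in Mueller-Hinton II medium following NCCLS standard M7-A2.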

Streptococcus sp. = tested on: Streptococcus sp.
Description: (§1) Methods for in vitro Antibacterial Evaluation (Table 1)
(§2) The minimum inhibitory concentration (MIC), the lowest concentration of the antibiotic which inhibits growth of the test organism, is determined by the broth dilution method using Muller-Hinton II […] (Baltimore Biological Laboratories) following the recommendations of the National Committee for Clinical Laboratory Standards [Methods for dilution antimicrobial susceptibility tests for bacteria that grow aerobically, approved standard M7-A2, National Committee for Clinical Laboratory Standards, Villanova, Pa.].
(§3) An inoculum level of 5×10^5 CFU/mL, and a range of antibiotic concentrations (64-0.06 μg/mL) is used. […] The test organisms include a spectrum of Gram-positive bacteria comprised of Staphylococcus sp., Streptococcus sp. and Enterococcus sp. These organisms include recent clinical isolates that are resistant to methicillin, penicillin and/or vancomycin.

Enterococcus sp. = tested on: Enterococcus sp.
Description: as §1, §2, §3

Staphylococcus sp. = tested on: Staphylococcus sp.
Description: as §1, §2, §3

MIC Escherichia coli (ATCC 25922) (Escherichia coli; strain ATCC 25922): >64 µg/mL
MIC Escherichia coli (GC 4559) (Escherichia coli; strain GC 4559): >64 µg/mL
MIC Escherichia coli (GC 4560) (Escherichia coli; strain GC 4560): 32 µg/mL (≈ 26.8 µM)
MIC Streptococcus pneumoniae (ATCC 6301) (Streptococcus sp.; strain ATCC 6301): 4 µg/mL (≈ 3.35 µM)
MIC Streptococcus pneumoniae (GC 1894) (Streptococcus sp.; strain GC 1894): 2 µg/mL (≈ 1.67 µM)
MIC Streptococcus pyogenes (GC 4563) (Streptococcus sp.; strain GC 4563): 1 µg/mL (≈ 0.837 µM)
MIC Streptococcus agalactiae (GC 4564) (Streptococcus sp.; strain GC 4564): 2 µg/mL (≈ 1.67 µM)
MIC Streptococcus pneumoniae (GC 4565) (Streptococcus sp.; strain GC 4565): 8 µg/mL (≈ 6.7 µM)
MIC Enterococcus faecalis (ATCC 29212) (Enterococcus sp.; strain ATCC 29212): 8 µg/mL (≈ 6.7 µM)
MIC Enterococcus faecalis (GC 2242) (Enterococcus sp.; strain GC 2242): 4 µg/mL (≈ 3.35 µM)
MIC Enterococcus faecium (GC 2243) (Enterococcus sp.; strain GC 2243): 4 µg/mL (≈ 3.35 µM)
MIC Enterococcus faecalis (GC 2691) (Enterococcus sp.; strain GC 2691): 32 µg/mL (≈ 26.8 µM)
MIC Enterococcus faecalis (GC 3059) (Enterococcus sp.; strain GC 3059): 32 µg/mL (≈ 26.8 µM)
MIC Enterococcus faecalis (GC 4552) (Enterococcus sp.; strain GC 4552): 16 µg/mL (≈ 13.4 µM)
MIC Enterococcus faecalis (GC 4553) (Enterococcus sp.; strain GC 4553): 4 µg/mL (≈ 3.35 µM)
MIC Enterococcus faecalis (GC 4554) (Enterococcus sp.; strain GC 4554): 64 µg/mL (≈ 53.6 µM)
MIC Enterococcus faecium (GC 4556) (Enterococcus sp.; strain GC 4556): 8 µg/mL (≈ 6.7 µM)
MIC Enterococcus faecium (GC 4557) (Enterococcus sp.; strain GC 4557): 4 µg/mL (≈ 3.35 µM)
MIC Enterococcus avium (GC 4558) (Enterococcus sp.; strain GC 4558): 2 µg/mL (≈ 1.67 µM)
MIC Enterococcus faecalis (GC 6189) (Enterococcus sp.; strain GC 6189): 32 µg/mL (≈ 26.8 µM)
MIC Staphylococcus aureus (ATCC 29213) (Staphylococcus sp.; strain ATCC 29213): 16 µg/mL (≈ 13.4 µM)
MIC Staphylococcus aureus (GC 1131) (Staphylococcus sp.; strain GC 1131): 32 µg/mL (≈ 26.8 µM)
MIC Staphylococcus aureus (GC 3051) (Staphylococcus sp.; strain GC 3051): 32 µg/mL (≈ 26.8 µM)
MIC Staphylococcus aureus (GC 3053) (Staphylococcus sp.; strain GC 3053): 16 µg/mL (≈ 13.4 µM)
MIC Staphylococcus aureus (GC 4541) (Staphylococcus sp.; strain GC 4541): 16 µg/mL (≈ 13.4 µM)
MIC Staphylococcus aureus (GC 4542) (Staphylococcus sp.; strain GC 4542): 16 µg/mL (≈ 13.4 µM)
MIC Staphylococcus aureus-SMITH (GC 4543) (Staphylococcus sp.; strain GC 4543): 8 µg/mL (≈ 6.7 µM)
MIC Staphylococcus aureus (GC 4544) (Staphylococcus sp.; strain GC 4544): 16 µg/mL (≈ 13.4 µM)
MIC Staphylococcus aureus (GC 4545) (Staphylococcus sp.; strain GC 4545): 16 µg/mL (≈ 13.4 µM)
MIC Coagulase Negative Staphylococcus (GC 4547) (Staphylococcus sp.; strain GC 4547): 16 µg/mL (≈ 13.4 µM)
MIC Coagulase Negative Staphylococcus (GC 4548) (Staphylococcus sp.; strain GC 4548): 2 µg/mL (≈ 1.67 µM)
MIC Coagulase Negative Staphylococcus (GC 4549) (Staphylococcus sp.; strain GC 4549): 0.5 µg/mL (≈ 0.419 µM)
MIC Coagulase Negative Staphylococcus (GC 4551) (Staphylococcus sp.; strain GC 4551): 8 µg/mL (≈ 6.7 µM)
SMILES: CC(c1ccccc1)C1NC(=O)CNC(=O)C(CO)NC(=O)C(C(O)C2CNC(=N)N2C2OC(CO)C(O)C(O)C2O)NC(=O)C(C(O)C2CNC(=N)N2)NC(=O)C(Cc2ccc3oc(SCc4ccc(-c5ccccc5)cc4)nc3c2)NC1=O (stereo not shown) [Example 47]
MIC Staphylococcus haemolyticus (GC 4546) (Staphylococcus sp.; strain GC 4546): 8 µg/mL (≈ 6.7 µM)
